We go through 23 compounds from patent publication US6710060B2, “4-hydroxypiperidine derivatives having antiarrhythmic activity” (Mochida Pharmaceutical Co., Ltd., priority 1999, dated 2004).

Structures can show the parent of a compound that is named as a salt.

Tested on in the first series: not given
Assay: not given
Conditions: not given
For the compound `CC(C)Oc1ccc(N(C)CCC2(O)CCN(Cc3cccc(C(F)(F)F)c3)CC2)cc1` [Example 85, 4-[2-[N-methyl-N-(4-isopropoxyphenyl)amino]ethyl]-1-[3-(trifluoromethyl)phenylmethyl]piperidin-4-ol], the melting point – broadly, the temperature, or range, at which the solid turns liquid – was in the range of 60.8 to 61.1 °C.

`CC(C)Oc1ccc(N(C)CCC2(O)CCN(Cc3cccs3)CC2)cc1` (as salt: hydrochloride) [Example 254, 4-[2-[N-methyl-N-(4-isopropoxyphenyl)amino]ethyl]-1(2-thienylmethyl)piperidin-4-ol dihydrochloride] returned a melting point of 216.5 to 217.5 °C.

`CCCCOc1ccc(N(C)CCC2(O)CCN(Cc3ccc(C#N)cc3)CC2)cc1` [Example 22, 4-[2-[N-(4-n-butoxyphenyl)-N-methylamino]ethyl]-1(4-cyanophenylmethyl)piperidin-4-ol] returned a melting point of 83.5 to 85.5 °C.

For the compound `CCCCOc1ccc(N(C)CCC2(O)CCN(Cc3ccc(F)cc3)CC2)cc1` (as salt: hydrochloride) [Example 177, 4-[2-[N-(4-n-butoxyphenyl)-N-methylamino]ethyl]-1(4-fluorophenylmethyl)piperidin-4-ol dihydrochloride], the melting point was 209 °C (dec.).

In turn, `CCCCOc1ccc(N(C)CCC2(O)CCN(CC(O)c3ccc(F)cc3)CC2)cc1` (stereo not drawn) (as salt: hydrochloride) [Example 198, 4-[2-[N-(4-n-butoxyphenyl)-N-methylamino]ethyl]-1-[2-(4-fluorophenyl)-2-hydroxyethyl]piperidin-4-ol dihydrochloride] had a melting point of 174.9 to 184.5 °C.

`CCCCOc1ccc(N(C)CCC2(O)CCN(Cc3ccc(Cl)cc3)CC2)cc1` [Example 20, 4-[2-[N-(4-n-butoxyphenyl)-N-methylamino]ethyl]-1-(4-chlorophenylmethyl)piperidin-4-ol] had a melting point of 67.7 to 68.3 °C.

Take `CC(C)Oc1ccc(N(C)CCC2(O)CCN(Cc3ccc(OC(F)(F)F)cc3)CC2)cc1` [Example 89, 4-[2-[N-methyl-N-(4-isopropoxyphenyl)amino]ethyl]-1-(4-trifluoromethoxyphenylmethyl)piperidin-4-ol]: the melting point is 84.7 to 85.1 °C.

Take `CC(C)Oc1ccc(N(C)CCC2(O)CCN(Cc3ccc(Br)cc3F)CC2)cc1` [Example 93, 1-(4-bromo-2-fluorophenylmethyl)-4-[2-[N-methyl-N-(4-isopropoxyphenyl)amino]ethyl]piperidin-4-ol]: the melting point was in the range of 99.8 to 100.9 °C.

Compound `CC(C)Oc1ccc(N(C)CCC2(O)CCN(Cc3ccc(F)cc3)CC2)cc1` [Example 78, 1-(4-fluorophenylmethyl)-4-[2-[N-methyl-N-(4-isopropoxyphenyl)amino]ethyl]piperidin-4-ol] registered a melting point of 69.2 to 70 °C.

In turn, `CCCCOc1ccc(N(C)CCC2(O)CCN(Cc3ccc(C)cc3)CC2)cc1` [Example 31, 4-[2-[N-(4-n-butoxyphenyl)-N-methylamino]ethyl]-1(4-methylphenylmethyl)piperidin-4-ol] gave a melting point of 73.3 to 75 °C.

`CCCCOc1ccc(N(C)CCC2(O)CCN(C3Cc4ccccc4C3)CC2)cc1` [Example 32, 4-[2-[N-(4-n-butoxyphenyl)-N-methylamino]ethyl]-1-(2,3-dihydro-1H-indene-2-yl)piperidin-4-ol] showed a melting point of 94.4 to 94.6 °C.

`CCCCOc1ccc(N(C)CCC2(O)CCN(Cc3ccc(C(=O)OC)cc3)CC2)cc1` [Example 23, 4-[2-[N-(4-n-butoxyphenyl)-N-methylamino]ethyl]-1-(4-methoxycarbonylphenylmethyl)piperidin-4-ol]: the melting point was 82.5 to 82.8 °C.

Compound `CC(C)Oc1ccc(N(C)CCC2(O)CCN(Cc3ccc(C#N)cc3)CC2)cc1` [Example 79, 1-(4-cyanophenylmethyl)-4-[2-[N-methyl-N-(4-isopropoxyphenyl)amino]ethyl]piperidin-4-ol] registered a melting point of 108.1 to 109.5 °C.

Consider `CCCCCOc1ccc(N(C)CCC2(O)CCN(Cc3ccccc3)CC2)cc1` [Example 15, 1-Benzyl-4-[2-[N-methyl-N-(4-n-pentyloxyphenyl)-amino]ethyl]piperidin-4-ol], for which the melting point was 58.5 to 60.3 °C.

`CCCCOc1ccc(N(C)CC(O)C2(O)CCN(CCc3ccc(F)cc3)CC2)cc1` (stereo not drawn) (as salt: hydrochloride) [Example 196, 4-[2-[N-(4-n-butoxyphenyl)-N-methylamino]-1-hydroxyethyl]-1-[2-(4-fluorophenyl)ethyl]piperidin-4-ol dihydrochloride] returned a melting point of 191.2 to 198.7 °C.

`CC(C)Oc1ccc(N(C)CCC2(O)CCN(Cc3ccc(C(F)(F)F)cc3)CC2)cc1` [Example 74, 4-[2-[N-methyl-N-(4-isopropoxyphenyl)amino]ethyl]-1-[4-(trifluoromethyl)phenylmethyl]piperidin-4-ol] had a melting point of 109.9 to 110.6 °C.

A further series concerns Electrocardiogram in Rats. The experiment in a line: Effect on electrocardiogram in rats. It is filed as in vivo. The settings on record: 5 mg/kg intravenous, anesthetized rat, two minutes after administration. How it is done: [Effect on Electrocardiogram in Rats]
After anesthetizing with 1.5 g/kg (s.c.) of urethane, a rat was fixed on a warm plate at its supination. Polyethylene tubes for administering a test compound and for measuring the blood pressure were inserted into and fixed to the jugular vein and femoral artery, respectively. The blood pressure of the artery was measured using a pressure transducer. An electrode was attached to the animal, electrocardiograms were led by the standard lead II. The heart rate was measured by using a heart rate counter. The test compound was given by intravenous injection when the blood pressure and heat rate had been stabilized after the operation. […] Each parameter on the electrocardiogram was processed using an analysis software running on the personal computer to calculate the rate of change as compared with that before administration.
Consider `CCCCOc1ccc(N(C)CCC2(O)CCN(CC(O)c3ccc(F)cc3)CC2)cc1` (stereo not drawn) [Example 198, 4-[2-[N-(4-n-butoxyphenyl)-N-methylamino]ethyl]-1-[2-(4-fluorophenyl)-2-hydroxyethyl]piperidin-4-ol dihydrochloride], for which the “PQ Distance (rate of change)” value is given as “— (The rate of change at two minutes after administration is 15% or less as compared with that before administration.)” and the “QRS Width (rate of change)” value is on record as “— (The rate of change at two minutes after administration is 15% or less as compared with that before administration.)”.

On to `CCCCOc1ccc(N(C)CCC2(O)CCN(Cc3ccc(F)cc3)CC2)cc1` [Example 177, 4-[2-[N-(4-n-butoxyphenyl)-N-methylamino]ethyl]-1(4-fluorophenylmethyl)piperidin-4-ol dihydrochloride], for which the “PQ Distance (rate of change)” value was “— (The rate of change at two minutes after administration is 15% or less as compared with that before administration.)” and the “QRS Width (rate of change)” value was “— (The rate of change at two minutes after administration is 15% or less as compared with that before administration.)”.

`CCCCOc1ccc(N(C)CCC2(OC)CCN(Cc3ccccc3)CC2)cc1` [Example 201, 1-benzyl-4-methoxy-4-[2-[N-(4-n-butoxyphenyl)-N-methylamino]ethyl]piperidine dihydrochloride]: the “PQ Distance (rate of change)” value is “— (The rate of change at two minutes after administration is 15% or less as compared with that before administration.)” and the “QRS Width (rate of change)” value was “— (The rate of change at two minutes after administration is 15% or less as compared with that before administration.)”.

In the case of `CC(C)Oc1ccc(N(C)CCC2(O)CCN(Cc3ccc(C#N)cc3)CC2)cc1` [Example 226, 1-(4-cyanophenylmethyl)-4-[2-[N-methyl-N-(4-isopropoxyphenyl)amino]ethyl]piperidin-4-ol dihydrochloride], the “PQ Distance (rate of change)” value was “— (The rate of change at two minutes after administration is 15% or less as compared with that before administration.)” and the “QRS Width (rate of change)” value was “— (The rate of change at two minutes after administration is 15% or less as compared with that before administration.)”.

`CCCCOc1ccc(N(C)CCC2(O)CCN(Cc3ccc4c(c3)OCO4)CC2)cc1` [Example 162, 4-[2-[N-(4-n-butoxyphenyl)-N-methylamino]ethyl]-1-(3,4-methylenedioxyphenylmethyl)piperidin-4-ol dihydrochloride]: the “PQ Distance (rate of change)” value is given as “— (The rate of change at two minutes after administration is 15% or less as compared with that before administration.)” and the “QRS Width (rate of change)” value is on record as “— (The rate of change at two minutes after administration is 15% or less as compared with that before administration.)”.

Consider `CCCCOc1ccc(N(C)CC(O)C2(O)CCN(CCc3ccc(F)cc3)CC2)cc1` (stereo not drawn) [Example 196, 4-[2-[N-(4-n-butoxyphenyl)-N-methylamino]-1-hydroxyethyl]-1-[2-(4-fluorophenyl)ethyl]piperidin-4-ol dihydrochloride], for which the “PQ Distance (rate of change)” value is “— (The rate of change at two minutes after administration is 15% or less as compared with that before administration.)” and the “QRS Width (rate of change)” value is recorded as “— (The rate of change at two minutes after administration is 15% or less as compared with that before administration.)”.

For `CC(C)Oc1ccc(N(C)CCC2(O)CCN(Cc3cccs3)CC2)cc1` [Example 254, 4-[2-[N-methyl-N-(4-isopropoxyphenyl)amino]ethyl]-1(2-thienylmethyl)piperidin-4-ol dihydrochloride], the “PQ Distance (rate of change)” value is recorded as “— (The rate of change at two minutes after administration is 15% or less as compared with that before administration.)” and the “QRS Width (rate of change)” value is reported as “— (The rate of change at two minutes after administration is 15% or less as compared with that before administration.)”.
